Test results published in patent publication US9877956B2, “Antiviral compounds and methods of use thereof” (Trana Discovery, Inc., priority 2014, dated 2018).
In brackets after ≈: the same amount, converted by molar mass. Several values for one entry are separate records, joined by “and”; a condition that tells them apart may be missing. Equal entries are not always repeated.

Assays:
Type in all cases: cell-based
[1] = tested on: HIV-1/Ba-L; experiment: Inhibition of HIV-1 Ba-L replication in PBMC (RT values); details: for % VC: RT relative to virus control; for RT Values (cpm), SAMPLE: individual samples
Description: These compounds were further screened for activity in HIV-1-infected peripheral blood mononuclear cells (PBMC). The data (experiments were repeated, so duplicates are shown) is summarized in the tables below, and also in FIGS. 4A-B and 5A-B.
The HIV strain was HIV-1/Ba-L. The titer was 0.1 μL/well.

[2] = tested on: HUMAN PBMCS; experiment: Cytotoxicity in human PBMCs (XTT); details: for TOXICITY VALUES (XTT - O.D. @ 450/650 nm), SAMPLE: individual samples, listed as Trana 156
Description: (§1) In these studies, PHA-P stimulated PBMCs from three donors were pooled together and re-suspended in fresh tissue culture medium at 1×10^6 cells/mL and plated in the interior wells of a 96 well round bottom microplate at 50µl/well. A 100µL volume of 9 concentrations of compound serially diluted were transferred to the round-bottom 96 well plate containing the cells in triplicate. Fifty microliters (µL) of HIV-1 at a pre-determined dilution was added. Each plate contained cell control wells and virus control wells in parallel with the experimental wells. After 7 days in culture, efficacy was evaluated by measuring the reverse transcriptase in the culture supernatants and the cells were stained with the tetrazolium dye XTT to evaluate cytotoxicity.

[3] = tested on: HIV-1 92/HT/599; experiment: HIV-1 92/HT/599 replication in human PBMCs, reverse transcriptase in culture supernatants (RLU); details: 0.32 μg/ml
Description: as §1

[4] = Human immunodeficiency virus 1, BAL, PBMC, HIV-1 Ba-L in PBMC

## CC1(C)OC(=O)C(=Cc2ccc(I)o2)C(=O)O1 [HIT #156]
[1]; 0.01 μM
  % VC: 112.3% and 106.4%
  RT Values (cpm), SAMPLE: 10480 cpm and 8884 cpm and 11894 cpm and 25643 cpm and 28270 cpm and 33067 cpm
[1]; 0.03 μM
  % VC: 84.0% and 99.4%
  RT Values (cpm), SAMPLE: 6505 cpm and 8625 cpm and 8243 cpm and 25769 cpm and 26494 cpm and 29027 cpm
[1]; 0.10 μM
  % VC: 68.9% and 122.1%
  RT Values (cpm), SAMPLE: 8064 cpm and 6238 cpm and 4871 cpm and 38847 cpm and 24637 cpm and 36331 cpm
[1]; 0.32 μM
  % VC: 81.3% and 86.3%
  RT Values (cpm), SAMPLE: 8253 cpm and 7009 cpm and 7376 cpm and 18012 cpm and 26707 cpm and 25800 cpm
[1]; 1.00 μM
  % VC: 64.5% and 85.3%
  RT Values (cpm), SAMPLE: 9732 cpm and 5647 cpm and 2583 cpm and 21965 cpm and 22751 cpm and 25042 cpm
[1]; 3.16 μM
  % VC: 27.9% and 43.2%
  RT Values (cpm), SAMPLE: 6132 cpm and 1058 cpm and 586 cpm and 6829 cpm and 9899 cpm and 18609 cpm
[1]; 10.0 μM
  % VC: 6.4% and 12.6%
  RT Values (cpm), SAMPLE: 635 cpm and 579 cpm and 575 cpm and 9437 cpm and 247 cpm and 585 cpm
[1]; 31.6 μM
  % VC: 1.6% and 2.3%
  RT Values (cpm), SAMPLE: 54 cpm and 94 cpm and 290 cpm and 120 cpm and 1345 cpm and 378 cpm
[1]; 100 μM
  % VC: 0.1% and 0.0%
  RT Values (cpm), SAMPLE: 18 cpm and 2 cpm and 0 cpm
[1]; HIV-1 Ba-L in PBMC
  IC50: 2.63 µM
  IC90: 13.3 µM
  IC 95%: 14.0 µM and 23.3 µM
[1]; [4]
  IC50: 1.58 µM
  IC90: 8.26 µM
[1]; TC/IC at 50%
  ANTIVIRAL INDEX (AI) 50%: >63.3 and >38.1
[1]; TC/IC at 90%
  ANTIVIRAL INDEX (AI) 90%: >12.1 and >7.51
[1]; TC/IC at 95%
  ANTIVIRAL INDEX (AI) 95%: >7.14 and >4.30
[2]; 0.32 μg/ml
  % Cell Viability: 97.66%
  Cytotoxicity Test Values Mean OD @ 450/650 nm: 1.094 OD
  TOXICITY VALUES (XTT - O.D. @ 450/650 nm), SAMPLE: 1.0465 O.D. (2×) and 1.1893 O.D.
[2]; 1 μg/ml
  % Cell Viability: 99.50%
  Cytotoxicity Test Values Mean OD @ 450/650 nm: 1.115 OD
  TOXICITY VALUES (XTT - O.D. @ 450/650 nm), SAMPLE: 1.1281 O.D. (2×) and 1.0879 O.D.
[2]; 3.16 μg/ml
  % Cell Viability: 87.52%
  Cytotoxicity Test Values Mean OD @ 450/650 nm: 0.980 OD
  TOXICITY VALUES (XTT - O.D. @ 450/650 nm), SAMPLE: 0.9762 O.D. (2×) and 0.9889 O.D.
[2]; 9.99 μg/ml
  % Cell Viability: 89.00%
  Cytotoxicity Test Values Mean OD @ 450/650 nm: 0.997 OD
  TOXICITY VALUES (XTT - O.D. @ 450/650 nm), SAMPLE: 1.1309 O.D. (2×) and 0.7293 O.D.
[2]; 31.6 μg/ml
  % Cell Viability: 12.90%
  Cytotoxicity Test Values Mean OD @ 450/650 nm: 0.145 OD
  TOXICITY VALUES (XTT - O.D. @ 450/650 nm), SAMPLE: 0.1469 O.D. (2×) and 0.1399 O.D.
[2]; 100 μg/ml
  % Cell Viability: 14.76%
  Cytotoxicity Test Values Mean OD @ 450/650 nm: 0.165 OD
  TOXICITY VALUES (XTT - O.D. @ 450/650 nm), SAMPLE: 0.1657 O.D. (2×) and 0.1646 O.D.
[2]; human PBMCs, XTT
  TC 25%: 12.3 µg/mL (≈ 35.3 µM)
  TC50 (TC 50%): 18.0 µg/mL (≈ 51.7 µM)
  TC 95%: <100 µg/mL
[3]
  % Virus Control: 93.58%
  Antiviral Test Values Mean RLU: 18048.7 RLU
